{"source": "patent US11707449B2", "about": "“Methods and formulations for treatment of spinobulbar muscular atrophy” (ST. JUDE CHILDREN'S RESEARCH HOSPITAL, INC., priority 2017, dated 2023)", "key": {"[1]": {"target": "T1, AR BF3 binding pocket and Bag-1L (Homo sapiens, UniProt P10275)", "T1 sequence (P10275 1-920)": "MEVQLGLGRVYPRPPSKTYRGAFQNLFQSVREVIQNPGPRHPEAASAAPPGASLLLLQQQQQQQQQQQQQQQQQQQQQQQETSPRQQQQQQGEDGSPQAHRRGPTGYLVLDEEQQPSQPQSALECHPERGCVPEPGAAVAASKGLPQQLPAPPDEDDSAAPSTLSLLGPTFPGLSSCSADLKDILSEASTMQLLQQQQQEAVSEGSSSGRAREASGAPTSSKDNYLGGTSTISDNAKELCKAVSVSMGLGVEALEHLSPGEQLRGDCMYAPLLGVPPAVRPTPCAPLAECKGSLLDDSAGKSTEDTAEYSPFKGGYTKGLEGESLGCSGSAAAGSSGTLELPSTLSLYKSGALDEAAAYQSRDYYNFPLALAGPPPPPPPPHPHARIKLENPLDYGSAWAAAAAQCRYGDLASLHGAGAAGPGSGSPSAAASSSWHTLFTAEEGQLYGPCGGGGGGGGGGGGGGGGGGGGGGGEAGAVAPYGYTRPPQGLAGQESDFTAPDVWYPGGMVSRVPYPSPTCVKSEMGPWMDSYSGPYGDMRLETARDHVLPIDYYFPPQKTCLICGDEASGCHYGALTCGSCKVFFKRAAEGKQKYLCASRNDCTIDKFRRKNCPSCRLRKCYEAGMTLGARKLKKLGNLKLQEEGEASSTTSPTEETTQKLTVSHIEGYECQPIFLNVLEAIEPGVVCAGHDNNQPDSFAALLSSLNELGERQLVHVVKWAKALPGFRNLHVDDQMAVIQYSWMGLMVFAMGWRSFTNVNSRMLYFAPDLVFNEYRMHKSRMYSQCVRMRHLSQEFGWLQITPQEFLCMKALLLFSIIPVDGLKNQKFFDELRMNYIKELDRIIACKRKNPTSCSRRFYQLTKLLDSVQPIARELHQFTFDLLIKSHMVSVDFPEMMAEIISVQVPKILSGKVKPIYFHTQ", "conditions": "cited from earlier work"}, "[2]": {"test_system": "flies expressing human AR52Q in pan-neuronal tissues (ELAV>UAS-AR52Q)", "experiment": "Viability of SBMA flies (rescue of DHT-induced lethality)", "format": "in vivo, Drosophila", "conditions": "flies reared on food containing 1 mM DHT and compound (TA, MEPB 0 to 400 μM)", "text": "UAS-AR52Q, UAS-AR52Q-K720A, and UAS-AR66Q-E897K fly stocks were generated as previously described^8. Fly stocks were crossed to various GAL4 driver lines (ELAV-GAL4 for pan-neuronal, OK371-GAL4 for motor neuron, GMR-GAL4 for eye) to induce expression of the AR transgene in a tissue-specific manner in fly vials containing fly food with either vehicle (1% ethanol +/−0.1% DMSO) or drugs. Upon the presence of progeny, parental flies were removed, and F1 flies were scored for phenotypic analysis. Viability was determined as previously described^40. Briefly, the population frequency of adult F1 SBMA flies (ELAV>UAS-AR52Q or OK371>UAS-AR52Q) and control flies (GAL4-ELAV; CyO-GFP) were determined by the presence or absence of the CyO phenotypic marker. At least three independent biological replicates (F0 crosses) were performed with new drug/food preparations for each treatment group, and a total of at least 50 flies were scored for each treatment group. To determine locomotor activity of SBMA flies, adult F1 flies (OK371>UAS-AR52Q) reared on food containing vehicle or drug were allowed to walk for 90 seconds in one well of a 12-well tissue culture plate while video was recorded using a Leica M205C stereomicroscope and Leica DFC320 digital camera. Videos were recorded for at least 15 flies per treatment group. Tracing of fly movement and analysis of displacement and velocity were performed using ImageJ software. Preparation and staining of larval neuromuscular junctions and ventral ganglions were performed as previously described^8."}}, "data": [{"smiles": "Cc1cccc(C)c1OCCSc1nc2ccccc2[nH]1", "note": "[CPD49, 2-((2-(2,6-dimethylphenoxy)ethyl)thio)-1H-benzimidazole]", "values": [{"measurement": "BF3-Bag-1L binding", "setting": "[1]", "result": "inhibited"}]}, {"smiles": "CC(C)Cc1ccc(C(C)C(=O)O)cc1", "note": "(centres unmarked) [ibuprofen]", "values": [{"measurement": "SBMA fly viability", "setting": "[2]", "result": "did not"}]}]}
